Consider four molecules from patent publication US20120040976A1, “SMALL MOLECULE IMMUNOMODULATORS FOR ALZHEIMER'S DISEASE” (HUMAN BIOMOLECULAR RESEARCH INSTITUTE, priority 2008, published 2012).

One data set is described as follows: Average permeability. Format: in vitro ADME. The note with it: not told.
A short description of data set [1]: Metabolic stability in human liver microsomes. Format: in vitro ADME. The note with it: human, read-out: Half life, t1/2 HLM.
A short description of data set [2]: Metabolic stability in human S9 fraction. Format: in vitro ADME. The note with it: read-out: Half life, t1/2 S9.
Data set [3] can be described thus: Chemical stability (H2O, pH 7.4). Format: physicochemical.
The subject of a further data set is MGAT3. The experiment in a line: MGAT3 transcription ratio, AD patient / control PBMCs (qPCR). Format: cell-based, human. The note with it: Aβ stimulation. The method, then: (§1) qPCR reactions of cultured monocyte cDNAs. One μL total cellular cDNA per reaction is used in triplicate reactions for each test gene, and for each culture treatment. SYBR-Green reactions were run on a Continuous Fluorescence real-time thermocycler and analyzed. Cycle threshold (Ct) values are recorded for each replicate reaction, and are then averaged and normalized against mean Ct values from one or more control genes. Fold-expression differences relative to untreated cells are determined using the 2^−ΔΔCt method as previously described. Data from the curcumin concentration range are plotted in order to determine EC50 values (concentrations producing one-half maximal stimulant activity), which are used for comparisons of potency between different compounds. Data are also evaluated for each gene with regard to sensitivity, maximally effective concentration of curcuminoid, response to Aβ, and overall magnitude of fold-expression changes.
(§2) MGAT3 and/or TLR transcription were tested by qPCR in human monocyte cells treated with curcuminoids and compared the results to those treated with vehicle (Table 7). As discussed above, activation or up-regulation of macrophage MGAT3 or TLR's results in many functional outcomes, including the enhancement of […] and removal of Aβ, increased apoptosis, secretion of inflammatory cytokines, and other anti-AD antimicrobial activities. […] Thus, the ratio of MGAT3 or TLR transcription upon Aβ stimulation of human monocytes versus vehicle treatment provides an indicator and sensitive method to test the in vitro efficacy of drug candidates. […] The relative biological activity of the curcumin analogs in AD patient and control cells was ascertained in the in vitro Aβ assay described above (see Example 2).
In general terms: Quantitative PCR measures a nucleic acid by following its amplification.

For a further data set, the system named is TLR 4. The experiment in a line: TLR 4 transcription ratio, AD patient / control PBMCs (qPCR). The note with it: Aβ stimulation. Format: cell-based, human. Here is the method: as §1, §2
For the next data set, the system named is TLR 2. The experiment in a line: TLR 2 transcription ratio, AD patient / control PBMCs (qPCR). Format: cell-based, human. The note with it: Aβ stimulation. The method, then:
as §1, §2

The test system of the next data set is TLR 3. The experiment in a line: TLR 3 transcription ratio, AD patient / control PBMCs (qPCR). The note with it: Aβ stimulation. Format: cell-based, human. The method, then:
as §1, §2

A further data set is described as follows: Average solubility. Format: physicochemical.
Where [4] appears, read: water (aqueous solution), pH 7.4, value given in h, read-out: Chemical stability t1/2 pH 7.4 (converted).
The mark [5] stands for this setting: water, H2O, value given in h, read-out: Chemical stability t1/2 H2O (converted).

SMILES strings stand for the structures. pIC50: −log10 of the molar value. ≈ marks a conversion by molar mass, not a printed value. Where only a bound is given, the exact number is not on record here.

As to `COc1cc(N(C)C)ccc1/C=C/C(O)=C1\CCC/C(=C\c2ccc(N(C)C)cc2OC)C1=O` [Compound 7, 2-(4-(Dimethylamino-2-methoxybenzylidene)-3-(4-(dimethylamino)-2-methoxyphenyl)-1-hydroxyallylidene)cyclohexanone], in the data set “Average permeability”, the Papp is 4.8 ×10⁻⁶ cm/s. Moreover, the half-life worked out at 2.11 h in data set [1] and 3.06 h in [2]. In data set [3] (H2O), the “Chemical stability H2O (stable/unstable)” value is on record as “stable^a (stability half-lives greater than 5 hours)”. In addition, in [3] (pH 7.4), the “Chemical stability pH 7.4 (stable/unstable)” value is given as “stable (stability half-lives greater than 5 hours)”. Moreover, in the data set with MGAT3, the “Relative ratio of MGAT3 transcription in AD patient / control PBMC's” value is “+++ ((+++ to ++++) indicates a ratio of 2.0 and above)”.
In the case of `NCCCCC(N)C(=O)Oc1ccc(/C=C/C(=O)/C=C(O)/C=C/c2ccc(OC(=O)C(N)CCCCN)cc2)cc1` (stereo not drawn) [Compound 34, 4,4′-(3,5-Dioxohepta-1,6-diene-1,7-diyl)bis(4,1-phenylene) bis(2,6-diaminohexanoate)], the half-life in data set [1] was 0.332 h; in data set [2], 0.075 h; in data set [3] (water, H2O, read-out: Chemical stability t1/2 H2O (converted)), 0.17 h. In addition, the “Relative ratio of TLR 4 transcription in AD patient / control PBMC's” value with TLR 4 is “TLR 4 + ((+) indicates a ratio of 1.0-1.5)”. Moreover, in the data set with TLR 2, the “Relative ratio of TLR 2 transcription in AD patient / control PBMC's” value was “TLR 2 +++ ((+++ to ++++) indicates a ratio of 2.0 and above)”. For the same molecule, the “Relative ratio of TLR 3 transcription in AD patient / control PBMC's” value in the data set with TLR 3 is listed as “TLR 3 ++ ((++) indicates a ratio of 1.5-2.0)”. Moreover, the pIC50 in the data set “Anti-oxidant activity” was less than 3.60. The “Chemical stability pH 7.4 (stable/unstable)” value in data set [3] (pH 7.4) is given as “unstable^b (stability half-lives less than 5 minutes)”. Besides, in the data set with MGAT3, the “Relative ratio of MGAT3 transcription in AD patient / control PBMC's” value was “++ ((++) indicates a ratio of 1.5-2.0)”.
Take `COc1cc(N(C)C)ccc1/C=C/C(=O)/C=C(O)/C=C/c1ccc(N(C)C)cc1OC` [Compound 3, 1,7-Bis(4-dimethylamino-2-methoxyphenyl)-5-hydroxy-hepta-1,4,6-trien-3-one]: the half-life in data set [1] was 1.06 h; in data set [2] it was 0.658 h; in data set [3] (setting [4]) it was 25.5 h; in [3] (setting [5]), 19.9 h. For the same molecule, the “Relative ratio of TLR 4 transcription in AD patient / control PBMC's” value in the data set on TLR 4 is on record as “TLR 4 ++ ((++) indicates a ratio of 1.5-2.0)”. In addition, the concentration in solution in the data set “Average solubility” (solubility) came to 0.73 µg/mL (≈ 1.73 µM). In addition, the “Relative ratio of TLR 2 transcription in AD patient / control PBMC's” value in the data set with TLR 2 is on record as “TLR 2 ++ ((++) indicates a ratio of 1.5-2.0)”. Further, the “Relative ratio of TLR 3 transcription in AD patient / control PBMC's” value with TLR 3 is given as “TLR 3 ++ ((++) indicates a ratio of 1.5-2.0)”. Besides, the “Relative ratio of MGAT3 transcription in AD patient / control PBMC's” value with MGAT3 is recorded as “++ ((++) indicates a ratio of 1.5-2.0)”.
In “Average permeability”, `COc1cc(/C=C/C(=O)/C=C(O)/C=C/c2ccc(OC(=O)C(N)C(C)C)c(OC)c2)ccc1OC(=O)C(N)C(C)C` (stereo not drawn) [Compound 35, 4,4′-(3,5-Dioxohepta-1,6-diene-1,7-diyl)bis(2-methoxy-4,1-phenylene)bis(2-amino-3-methylbutanoate)] showed a Papp of 572 ×10⁻⁶ cm/s. For the same molecule, the half-life is 0.93 h in [1], 0.15 h in data set [2], 2.3 h in data set [3] (setting [4]) and 18.2 h in data set [3] (setting [5]). The “Relative ratio of TLR 4 transcription in AD patient / control PBMC's” value with TLR 4 is “TLR 4 + ((+) indicates a ratio of 1.0-1.5)”. Also, in the data set “Average solubility”, the solubility was determined as 22.8 µg/mL (≈ 40.2 µM). In the data set on TLR 2, the “Relative ratio of TLR 2 transcription in AD patient / control PBMC's” value is “TLR 2 +++ ((+++ to ++++) indicates a ratio of 2.0 and above)”. For the same molecule, the “Relative ratio of MGAT3 transcription in AD patient / control PBMC's” value with MGAT3 is listed as “++ ((++) indicates a ratio of 1.5-2.0)”.

As a reminder, the Papp is a coefficient for how fast a substance crosses the barrier. One may read the pIC50 as the IC50 on a negative log10 scale, so that one unit is a factor of ten. In general, solubility refers to how much of the substance goes into solution per volume.
